Measured values from the supplement of paper PMC10307832.

Tests used:
Assay in all cases: relative viability (nuclei count vs DMSO), 5 days (fraction); higher = more cells survive
CAL-12T = test system: CAL-12T
How it was run: (§1)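 Medians of duplicate plates are given as relative viability. That measure is the nuclei count in treated wells divided by the count in vehicle wells. Counts were taken on 4× images of lung cancer cell lines in 1536-well plates, 5 days after pin-tool dosing the day after seeding with one drug alone or a fixed anchor-drug dose plus five library-drug doses (not always all listed) in √10 steps.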

COR-L 105 = test system: COR-L 105
How it was run: as §1

H3255 = test system: H3255
How it was run: as §1

HARA = test system: HARA
How it was run: as §1

HCC-15 = test system: HCC-15
How it was run: as §1

HCC-366 = test system: HCC-366
How it was run: as §1

LC-2-ad = test system: LC-2-ad
How it was run: as §1

LU99A = test system: LU99A
How it was run: as §1

NCI-H1395 = test system: NCI-H1395
How it was run: as §1

NCI-H1666 = test system: NCI-H1666
How it was run: as §1

NCI-H1734 = test system: NCI-H1734
How it was run: as §1

NCI-H1944 = test system: NCI-H1944
How it was run: as §1

NCI-H1975 = test system: NCI-H1975
How it was run: as §1

NCI-H1993 = test system: NCI-H1993
How it was run: as §1

NCI-H2228 = test system: NCI-H2228
How it was run: as §1

NCI-H3122 = test system: NCI-H3122
How it was run: as §1

NCI-H520 = test system: NCI-H520
How it was run: as §1

NCI-H647 = test system: NCI-H647
How it was run: as §1

NCI-H661 = test system: NCI-H661
How it was run: as §1

NCI-H838 = test system: NCI-H838
How it was run: as §1

PC-14 = test system: PC-14
How it was run: as §1

PC-3 [JPC-3] = test system: PC-3 [JPC-3]
How it was run: as §1

SK-LU-1 = test system: SK-LU-1
How it was run: as §1

Cc1cnc(-c2cnc(NCCNc3ccc(C#N)cn3)nc2-c2ccc(Cl)cc2Cl)[nH]1 + Cc1cc(Nc2cc(N3CCN(C)CC3)nc(Sc3ccc(NC(=O)C4CC4)cc3)n2)n[nH]1 [Tozasertib] (partner 0.1 µM)
relative viability (CAL-12T; first compound 0.08 µM): 0.346
relative viability (CAL-12T; first compound 0.253 µM): 0.302
relative viability (CAL-12T; first compound 0.8 µM): 0.234
relative viability (CAL-12T; first compound 2.53 µM): 0.211
relative viability (COR-L 105; first compound 0.08 µM): 0.349
relative viability (COR-L 105; first compound 0.253 µM): 0.327
relative viability (COR-L 105; first compound 0.8 µM): 0.346
relative viability (COR-L 105; first compound 2.53 µM): 0.298
relative viability (H3255; first compound 0.08 µM): 0.951
relative viability (H3255; first compound 0.253 µM): 0.511
relative viability (H3255; first compound 0.8 µM): 0.593
relative viability (H3255; first compound 2.53 µM): 0.65
relative viability (HARA; first compound 0.08 µM): 0.116
relative viability (HARA; first compound 0.253 µM): 0.113
relative viability (HARA; first compound 0.8 µM): 0.116
relative viability (HARA; first compound 2.53 µM): 0.1
relative viability (HCC-15; first compound 0.08 µM): 0.346
relative viability (HCC-15; first compound 0.253 µM): 0.373
relative viability (HCC-15; first compound 0.8 µM): 0.473
relative viability (HCC-15; first compound 2.53 µM): 0.279
relative viability (HCC-366; first compound 0.08 µM): 0.0773
relative viability (HCC-366; first compound 0.253 µM): 0.0701
relative viability (HCC-366; first compound 0.8 µM): 0.071
relative viability (HCC-366; first compound 2.53 µM): 0.0493
relative viability (LC-2-ad; first compound 0.08 µM): 0.439
relative viability (LC-2-ad; first compound 0.253 µM): 0.392
relative viability (LC-2-ad; first compound 2.53 µM): 0.477
relative viability (LU99A; first compound 0.08 µM): 0.257
relative viability (LU99A; first compound 0.253 µM): 0.301
relative viability (LU99A; first compound 0.8 µM): 0.256
relative viability (LU99A; first compound 2.53 µM): 0.243
relative viability (NCI-H1395; first compound 0.08 µM): 0.778
relative viability (NCI-H1395; first compound 0.253 µM): 0.856
relative viability (NCI-H1395; first compound 0.8 µM): 0.872
relative viability (NCI-H1395; first compound 2.53 µM): 0.756
relative viability (NCI-H1666; first compound 0.08 µM): 0.63
relative viability (NCI-H1666; first compound 0.253 µM): 0.593
relative viability (NCI-H1666; first compound 0.8 µM): 0.623
relative viability (NCI-H1666; first compound 2.53 µM): 0.626
relative viability (NCI-H1734; first compound 0.08 µM): 0.314
relative viability (NCI-H1734; first compound 0.253 µM): 0.253
relative viability (NCI-H1734; first compound 0.8 µM): 0.261
relative viability (NCI-H1734; first compound 2.53 µM): 0.247
relative viability (NCI-H1944; first compound 0.08 µM): 0.253
relative viability (NCI-H1944; first compound 0.8 µM): 0.254
relative viability (NCI-H1944; first compound 2.53 µM): 0.252
relative viability (NCI-H1975; first compound 0.08 µM): 0.717
relative viability (NCI-H1975; first compound 0.253 µM): 0.659
relative viability (NCI-H1975; first compound 0.8 µM): 0.508
relative viability (NCI-H1975; first compound 2.53 µM): 0.132
relative viability (NCI-H1993; first compound 0.08 µM): 0.583
relative viability (NCI-H1993; first compound 0.253 µM): 0.558
relative viability (NCI-H1993; first compound 0.8 µM): 0.573
relative viability (NCI-H1993; first compound 2.53 µM): 0.538
relative viability (NCI-H2228; first compound 0.08 µM): 0.283
relative viability (NCI-H2228; first compound 0.253 µM): 0.267
relative viability (NCI-H2228; first compound 0.8 µM): 0.297
relative viability (NCI-H2228; first compound 2.53 µM): 0.268
relative viability (NCI-H3122; first compound 0.08 µM): 0.414
relative viability (NCI-H3122; first compound 0.8 µM): 0.392
relative viability (NCI-H3122; first compound 2.53 µM): 0.33
relative viability (NCI-H520; first compound 0.08 µM): 0.517
relative viability (NCI-H520; first compound 0.253 µM): 0.444
relative viability (NCI-H520; first compound 0.8 µM): 0.397
relative viability (NCI-H520; first compound 2.53 µM): 0.499
relative viability (NCI-H647; first compound 0.08 µM): 0.306
relative viability (NCI-H647; first compound 0.253 µM): 0.163
relative viability (NCI-H647; first compound 0.8 µM): 0.263
relative viability (NCI-H647; first compound 2.53 µM): 0.172
relative viability (NCI-H661; first compound 0.08 µM): 0.361
relative viability (NCI-H661; first compound 0.253 µM): 0.378
relative viability (NCI-H661; first compound 0.8 µM): 0.363
relative viability (NCI-H661; first compound 2.53 µM): 0.341
relative viability (NCI-H838; first compound 0.08 µM): 0.293
relative viability (NCI-H838; first compound 0.253 µM): 0.235
relative viability (NCI-H838; first compound 0.8 µM): 0.281
relative viability (NCI-H838; first compound 2.53 µM): 0.272
relative viability (PC-14; first compound 0.08 µM): 0.611
relative viability (PC-14; first compound 0.253 µM): 0.47
relative viability (PC-14; first compound 0.8 µM): 0.551
relative viability (PC-14; first compound 2.53 µM): 0.549
relative viability (PC-3 [JPC-3]; first compound 0.08 µM): 0.872
relative viability (PC-3 [JPC-3]; first compound 0.253 µM): 0.849
relative viability (PC-3 [JPC-3]; first compound 0.8 µM): 0.819
relative viability (PC-3 [JPC-3]; first compound 2.53 µM): 0.719
relative viability (SK-LU-1; first compound 0.08 µM): 0.314
relative viability (SK-LU-1; first compound 0.253 µM): 0.348
relative viability (SK-LU-1; first compound 0.8 µM): 0.426
relative viability (SK-LU-1; first compound 2.53 µM): 0.535
